Results as given in US9066922B2, “Pharmaceutical composition for the treatment or prevention of diseases involving obesity, diabetes, metabolic syndrome, neuro-degenerative diseases and mitochondria dysfunction diseases” (MD BIOALPHA CO., LTD., priority 2005, dated 2015).

Legend:
[1] = tested on: mRNAs for HK2, GLUT2 and GLUT4; assay: Gene expression of proteins involved in glucose metabolism in DIO mice; assay type: in vivo, C57BL/6 mice; details: 50 mg/kg daily oral, liver and gonadal adipose tissues, vs control group
Experimental: β-lapachone was administered daily to diet-induced obesity (DIO) mice at a dose of 50 mg/kg via an oral route, and levels of mRNAs for hexokinase 2 (HK2) (21,22), glucose transporter (GLUT) 2 and GLUT4 (18,19,20) in the liver and gonadal adipose tissues were confirmed by real-time quantitative PCR. GLUT is well-known as a protein that mediates intracellular uptake and expenditure of blood glucose in organs such as liver, adipocytes and myoblast cells, whereas HK2, an enzyme belonging to a glucokinase class, phosphorylates […] that are thus allowed to enter glycolytic pathways. […] Increased levels of GLUT2 and GLUT4 facilitate intracellular uptake of blood glucose, thus presenting the possibility of β-lapachone as an anti-diabetic drug.

[2] = tested on: transcripts of Sirtuin (SIRT) genes; assay: Expression of SIRT-related transcripts in DIO mice; assay type: in vivo, C57BL/6 mice; details: 50 mg/kg daily oral, gonadal adipose tissues, days 7, 28 and 56
Experimental: β-lapachone was administered daily to diet-induced obesity (DIO) mice at a dose of 50 mg/kg via an oral route, and levels of transcripts of Sirtuin (SIRT) (36,37) genes in gonadal adipose tissues were measured on days 7, 28 and 56 of administration, respectively, using real-time quantitative PCR. Referring to SIRT-related transcripts shown in FIG. 12, there are known 7 species of transcripts in humans.

[3] = tested on: diet-induced obesity (DIO) C57BL/6 mice; assay: Body weight, dietary intake, fat, blood parameters and histology in diet-induced obesity (DIO) C57BL/6 mice; assay type: in vivo
Description: FIGS. 16A through 16C show whole laparotomized states of animals after administration of β-lapachone to DIO C57BL/6 mice for 56 days and results of oil red O staining and EM examination on fat accumulation in liver tissues. […] In order to confirm improvement in condition of fatty liver in FIG. 16, accumulated fat in the liver was stained using oil red O staining and as a result, it was confirmed that fat has diminished by 90% or more, as compared to a control group.
Referring to FIG. 17, after daily administration of β-lapachone to DIO C57BL/6 mice at a dose of 50 mg/kg via an oral route, animals were laparotomized on day 56 of β-lapachone administration and perilipin staining was performed on gonadal adipose tissues.
Referring to FIG. 19, after daily administration of β-lapachone to DIO C57BL/6 mice at a dose of 50 mg/kg via an oral route, H&E staining of brown adipose tissues was performed on day 56 of administration.

[4] = tested on: leptin receptor-deficient (ob/ob) mice; assay: Changes in leptin receptor-deficient (ob/ob) mice by administration of β-lapachone; assay type: in vivo
Experimental: (§1) This is because fat degradation is facilitated and therefore sufficient amounts of energy are generated, despite similar dietary intake. […] In order to examine fat accumulation in the liver tissue, animals were laparotomized 56 days after administration of β-lapachone, and H&E staining (FIG. 21C) and EM examination (FIG. 21D) were performed on the liver tissue.

[5] = tested on: leptin-deficient (ob/ob) mice; assay: as above; assay type: in vivo; details: 56 days, vs control group
Experimental: as §1

DIO C57BL/6 mice [6] = assay: Physical endurance (swimming test) in DIO C57BL/6 mice; assay type: in vivo; details: single administration, 3 hours later, vs control group
Experimental: This Example was intended to measure difference in physical endurance of mice through a swimming test. For this purpose, water was placed in a cylindrical trough having a diameter of 9.5 cm and height of 25 cm, and β-lapachone was administered to DIO C57BL/6 mice. 3 hours later, a sample-administered group and a control group were placed simultaneously into each cylindrical trough for measurement, and physical endurance of each group was compared.

DIO C57BL/6 mice [7] = assay: Respiratory Quotient (RQ), indirect calorimeter; assay type: in vivo; details: measured for 7 hours, vs vehicle-administered group and control group
Experimental: FIG. 24 is a graph showing effects of β-lapachone on Respiratory Quotient (RQ) after administration of β-lapachone to DIO C57BL/6 mice.
This Example was intended to examine effects of β-lapachone on fat metabolism via measurement of Respiratory Quotient (RQ). Oxygen consumption and carbon dioxide production were measured using an Oxyscan open-circuit indirect calorimeter (AccuScan Instruments, Columbus, Ohio). This apparatus consisted of enclosed acrylic chambers (21×21×21 cm). Fresh air was drawn into each chamber at a rate of 1500 ml/min and then O2 and CO2 were allowed to pass through detectors. The concentrations of the gases were recorded in ml/kg body weight/min. RQ was calculated as the volume of CO2 produced (VCO2) divided by the volume of O2 consumed (VO2). A β-lapachone-administered group, a vehicle-administered group and a control group were placed in each apparatus, and RQ was measured for 7 hours. For acclimation of animal to new environment, mice were placed in the apparatus 2 hours prior to measurement.

Sprague-Dawley rats = assay: Acute toxicity test, oral administration; assay type: in vivo; details: oral, 50, 100 and 200 mg/kg, observed for 2 weeks
[8] = DIO C57BL/6 mice, 56 days, vs control group
[9] = DIO mice, 50 mg/kg daily oral, day 56
[10] = DIO mice, 50 mg/kg daily oral, days 3, 7, 14, 28 and 56

CC1(C)CCC2=C(O1)c1ccccc1C(=O)C2=O [Compound 1, β-Lapachone]
GLUT2 mRNA expression [1]: significant increases | GLUT4 mRNA expression [1]: significant increases | HK2 mRNA level [1]: decreased | SIRT2 transcript level [2]: did not exhibit any noticeable difference | SIRT3 transcript level [2]: significantly increased | SIRT5 transcript level [2]: did not exhibit any noticeable difference | SIRT6 transcript level [2]: significantly increased | SIRT7 transcript level [2]: did not exhibit any noticeable difference | SITR1 transcript level [2]: significantly increased | visceral fat and body weight (laparotomized state) ([3]; DIO C57BL/6 mice, 56 days): conspicuous decreases in visceral fat and body weight | EM examination on liver tissues: fat vacuoles and glycogen stores [3, 8]: remarkably decreased fat vacuoles and glycogen stores | EM examination on liver tissues: mitochondrial numbers [3, 8]: significant increases in mitochondrial numbers | decrease of accumulated fat in the liver (oil red O staining) [3, 8]: ≥ 90% | weight changes in various organs [3, 8]: significant changes in weight of tissues | body weight ([3]; DIO mice on high-fat diet, 50 mg/kg daily oral, 56 days, vs control group): continuous weight loss for 56 days | dietary intake ([3]; DIO mice, 50 mg/kg daily oral, 56 days): decreases in dietary intake for first two weeks | size of adipocytes in brown adipose tissue (EM examination) [3, 9]: remarkably decreased | size of adipocytes in brown adipose tissues (H&E staining) [3, 9]: remarkably decreased | size of adipocytes in gonadal adipose tissues (perilipin staining) [3, 9]: remarkably decreased | blood fat and glucose levels [3, 10]: significantly improved | blood level of resistin [3, 10]: significantly improved | insulin resistance and leptin resistance [3, 10]: also improved | dietary intake/body weight ([4]; 150 or 200 mg/kg daily oral, 56 days): notably decreased around at 10 days of administration | body weight ([4]; 150 or 200 mg/kg daily oral, 56 days, vs control group): continuous weight loss for 56 days | H&E staining on liver tissue: fat vacuoles ([4]; 56 days after administration, vs control group): almost all fat vacuoles have disappeared | EM examination on liver tissues: mitochondrial numbers ([4]; 56 days, vs control group): significant increases in mitochondrial numbers | EM examination on muscle tissue of limbs: mitochondrial shape ([4]; 56 days, vs control group): recovery of normal mitochondrial shape | EM examination on muscle tissue of limbs: numbers of mitochondria ([4]; 56 days, vs control group): significant increases in numbers of mitochondrial | EM examination on liver tissues: fat vacuoles and glycogen stores [5]: remarkably decreased fat vacuoles and glycogen stores | swimming duration (DIO C57BL/6 mice [6]): more than two-fold swimming duration | Respiratory Quotient (RQ) (DIO C57BL/6 mice [7]): significant difference in a RQ value | mortality (Sprague-Dawley rats): none of the animals died
